Experimental data published in patent US20040024024A1, “Aromatic sulfone hydroxamates and their use as protease inhibitors” (priority 2001, published 2004).
Where a name gives a salt, the structure may show the parent alone.

How the values were obtained:
Assay in all cases: In vitro MMP inhibition, IC50 determination (fluorogenic substrate I)
Type in all cases: biochemical
Human recombinant MMP-2 = molecular target: T1, Human recombinant MMP-2 (Homo sapiens, UniProt P08253)
T1 construct: made in house; host or cells: MMP-2-transfected p2AHT2 cells
T1 sequence (P08253 110-660): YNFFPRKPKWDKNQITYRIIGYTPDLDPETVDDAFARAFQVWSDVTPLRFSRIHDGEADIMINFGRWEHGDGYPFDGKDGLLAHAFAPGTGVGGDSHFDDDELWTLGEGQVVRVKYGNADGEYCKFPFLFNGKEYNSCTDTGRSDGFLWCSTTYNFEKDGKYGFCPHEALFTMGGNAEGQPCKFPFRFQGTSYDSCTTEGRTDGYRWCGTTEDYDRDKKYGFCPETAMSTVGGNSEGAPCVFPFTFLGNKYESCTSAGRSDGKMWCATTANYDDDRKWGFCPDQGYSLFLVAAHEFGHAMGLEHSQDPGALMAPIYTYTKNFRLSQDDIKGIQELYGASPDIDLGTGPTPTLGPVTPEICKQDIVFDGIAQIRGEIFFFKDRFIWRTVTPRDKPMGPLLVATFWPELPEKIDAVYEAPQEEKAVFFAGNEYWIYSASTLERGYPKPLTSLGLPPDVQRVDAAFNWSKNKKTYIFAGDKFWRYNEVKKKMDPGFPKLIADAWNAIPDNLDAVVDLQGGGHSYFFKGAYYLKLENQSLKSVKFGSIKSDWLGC
In short: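 IC50 was derived from the concentration-dependent fall in fluorescence (ex 328, em 415 nm) on Gly-Leu cleavage of 4 μM MCA/Dpa-quenched substrate I. Assays ran at room temperature in pH 7.5 Tris/NaCl/CaCl2/Brij buffer with MMP-2 activated by trypsin or APMA; inhibitors were diluted from 1% DMSO stocks.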

Human recombinant MMP-9 = molecular target: T2, Human recombinant MMP-9 (Homo sapiens, UniProt P14780)
T2 construct: made in house; host or cells: MMP-9-transfected HT1080 cells (spent media)
T2 sequence (P14780 107-707 limits assumed): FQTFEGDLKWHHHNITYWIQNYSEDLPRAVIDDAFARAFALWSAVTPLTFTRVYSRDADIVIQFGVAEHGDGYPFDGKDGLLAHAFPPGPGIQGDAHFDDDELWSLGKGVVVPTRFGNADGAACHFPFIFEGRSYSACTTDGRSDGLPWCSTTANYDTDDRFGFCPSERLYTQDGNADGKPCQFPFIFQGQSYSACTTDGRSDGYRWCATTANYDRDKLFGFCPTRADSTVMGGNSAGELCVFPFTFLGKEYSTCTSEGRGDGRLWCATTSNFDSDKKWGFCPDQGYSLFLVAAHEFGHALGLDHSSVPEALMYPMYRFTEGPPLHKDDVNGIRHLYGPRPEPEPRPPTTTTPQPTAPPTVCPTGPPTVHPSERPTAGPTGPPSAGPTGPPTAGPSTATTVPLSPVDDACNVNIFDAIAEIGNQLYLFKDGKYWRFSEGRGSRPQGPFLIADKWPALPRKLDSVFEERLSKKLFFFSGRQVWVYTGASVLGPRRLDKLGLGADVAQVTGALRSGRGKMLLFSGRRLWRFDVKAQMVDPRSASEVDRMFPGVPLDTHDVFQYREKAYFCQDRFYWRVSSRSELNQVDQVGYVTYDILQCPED
In short: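 Reduction in fluorescence (328 nm excitation, 415 nm emission) from cleavage of 4 μM quenched peptide substrate I, measured at room temperature against inhibitor concentration, gave IC50. Enzyme: trypsin- or APMA-activated MMP-9 purified from transfected HT1080 medium; buffer 100 mM Tris, 100 mM NaCl, 10 mM CaCl2, pH 7.5.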

Human recombinant MMP-14 = molecular target: T3, Human recombinant MMP-14 (Homo sapiens, UniProt P50281)
T3 construct: The catalytic domain enzyme was expressed in E. coli inclusion bodies, solubilized in urea; made in house
In short: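 IC50 came from reduced fluorescence (ex 328 nm, em 415 nm) as inhibitor concentration rose, with 4 μM substrate I cleaved at Gly-Leu. Room-temperature incubation in pH 7.5 Tris buffer with 10 mM CaCl2; the E. coli-expressed, refolded MMP-14 catalytic domain was activated with trypsin or APMA.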

[1] = substrate (I) 4 μM, room temperature, values not in parenthesis

SMILES	IC50 (Human recombinant MMP-2; value outside parentheses) [nM]	IC50 (Human recombinant MMP-2; value outside parenthesis) [nM]	also measured
Cc1ccc(-c2cccc(CCOc3ccc(S(=O)(=O)C4(C(=O)NO)CCOCC4)cc3)c2)cc1 [Example 127]		1380	IC50 (Human recombinant MMP-9; value outside parenthesis): > 10000 nM; IC50 (Human recombinant MMP-14; value outside parenthesis): > 10000 nM
COCCN1CCC(C(=O)NO)(S(=O)(=O)c2ccc(OCCCc3nc(-c4ccc(OC(F)(F)F)cc4)no3)cc2)CC1 [Example 42]			IC50 (Human recombinant MMP-2; [1]): 100 nM; IC50 (Human recombinant MMP-9; [1]): 382 nM; IC50 (Human recombinant MMP-14; [1]): > 10000 nM
O=C(NO)C1(S(=O)(=O)c2ccc(OCCCc3cccc(-c4ccc(F)cc4)c3)cc2)CCOCC1 [Example 39]			IC50 (Human recombinant MMP-2; [1]): 1300 nM
CC(C)c1cccc(NC(=O)CCCOc2ccc(S(=O)(=O)C3(C(=O)NO)CCOCC3)cc2)c1 [Example 182]		33.1	IC50 (Human recombinant MMP-9; value outside parenthesis): 62.1 nM; IC50 (Human recombinant MMP-14; value outside parenthesis): > 10000 nM
O=C(CCCOc1ccc(S(=O)(=O)C2(C(=O)NO)CCOCC2)cc1)Nc1ccc(OC(F)(F)F)cc1 [Example 228]		11.4	IC50 (Human recombinant MMP-9; value outside parenthesis): 180 nM; IC50 (Human recombinant MMP-14; value outside parenthesis): > 10000 nM
COCCN1CCC(C(=O)NO)(S(=O)(=O)c2ccc(OCCCc3cc(-c4ccc(F)cc4F)cs3)cc2)CC1 [Example 47, 4-[(4-{3-[4-(2,4-difluorophenyl)thien-2-l]propoxy}phenyl)sulfonyl]-N-hydroxy-1-(2-methoxyethyl)piperidine-4-carboxamide Hydrochloride]			IC50 (Human recombinant MMP-2; [1]): 18.2 nM
O=C1Nc2ccc(-c3noc(CCCOc4ccc(S(=O)(=O)C5(C(=O)NO)CCN(C6CC6)CC5)cc4)n3)cc21 [Example 142]		58.6	
O=C(NO)C1(S(=O)(=O)c2ccc(OCCCc3nc(-c4cccnc4)no3)cc2)CCOCC1 [Example 578]	20.5		
O=C(NO)C1(S(=O)(=O)c2ccc(OCCCc3cccc(-n4ccnc4)c3)cc2)CCOCC1 [Example 574]	29.4		
O=C(COc1ccc(S(=O)(=O)C2(C(=O)NO)CCOCC2)cc1)c1cccc(-c2ccccc2)c1 [Example 563]	73.5		
O=C(NO)C1(S(=O)(=O)c2ccc(OCCCc3cccc(-c4ccc5c(c4)OCCO5)c3)cc2)CCOCC1 [Example 627]	2070		
O=C(NO)C1(S(=O)(=O)c2ccc(OCCCc3nc(-c4ccccc4)no3)cc2)CCOCC1 [Example 584]	72.9		
O=C(NO)C1(S(=O)(=O)c2ccc(OCCCc3cccc(-c4ccc(OC(F)(F)F)cc4)c3)cc2)CCOCC1 [Example 147]		4750	
NC(=O)c1cccc(OCCOc2ccc(S(=O)(=O)C3(C(=O)NO)CCOCC3)cc2)c1 [Example 54]			IC50 (Human recombinant MMP-2; [1]): 35.5 nM

Second part, led by results:

IC50 (Human recombinant MMP-2; value outside parentheses) [nM]	IC50 (Human recombinant MMP-2; value outside parenthesis) [nM]	SMILES	also measured
138		O=C(NO)C1(S(=O)(=O)c2ccc(OCCCc3cccc(-c4ccoc4)c3)cc2)CCOCC1 [Example 637]	IC50 (Human recombinant MMP-9; value outside parentheses): 830 nM; IC50 (Human recombinant MMP-14; value outside parentheses): > 10000 nM
1700		O=C(NO)C1(S(=O)(=O)c2ccc(OCCCc3cccc(-c4ccc5c(c4)OCO5)c3)cc2)CCOCC1 [Example 628]	IC50 (Human recombinant MMP-9; value outside parentheses): 1750 nM; IC50 (Human recombinant MMP-14; value outside parentheses): > 10000 nM
195		O=C(NO)C1(S(=O)(=O)c2ccc(OCCCc3cccc(-c4ccccc4O)c3)cc2)CCOCC1 [Example 636]	
	272	O=C(NO)C1(S(=O)(=O)c2ccc(OCCCc3cccc(-c4ccccn4)c3)cc2)CCOCC1 [Example 148]	
	1070	Cc1ccccc1-c1cccc(CCCOc2ccc(S(=O)(=O)C3(C(=O)NO)CCOCC3)cc2)c1 [Example 164]	
2310		C=Cc1ccc(-c2cccc(CCCOc3ccc(S(=O)(=O)C4(C(=O)NO)CCOCC4)cc3)c2)cc1 [Example 635]	
537		O=C(NO)C1(S(=O)(=O)c2ccc(OCCCc3cccc(-c4ccc5ccccc5c4)c3)cc2)CCOCC1 [Example 629]	
4400		O=C(NO)C1(S(=O)(=O)c2ccc(OCCCc3cccc(-c4cccc5ccccc45)c3)cc2)CCOCC1 [Example 638]	
486		O=C(NO)C1(S(=O)(=O)c2ccc(OCCCc3cccc(-c4coc5ccccc45)c3)cc2)CCOCC1 [Example 634]	
	185	O=C(NO)C1(S(=O)(=O)c2ccc(OCCCc3cccc(-c4ccco4)c3)cc2)CCOCC1 [Example 97]	
2830		O=C(NO)C1(S(=O)(=O)c2ccc(OCCCc3cccc(-c4cc5ccccc5s4)c3)cc2)CCOCC1 [Example 633]	
